{"source": "patent US7247734B2", "about": "(Vernalis (Cambridge) Limited, priority 2001, dated 2007)", "test_system": "HCT116 cells", "experiment": "Cellular protein by BCA assay after compound exposure (ELISA plates)", "assay_type": "cell-based, human", "settings": "for Cellular Protein (% DMSO controls): HCT116, 10 μM compound", "experimental": "Incubate at 37° for 30 min. • (6) Wash plates twice in PBS using an automated washer (Wellwash 5000 ten plate stacker-washer or Wellwash Ascent single plate washer, Thermo Labsystems, Basingstoke, UK). • (7) Block the plates by addition of blocking solution (100 μl) and incubate for 30 min. • (8) Add 100 μl primary antibody diluted to 0.95 μg/ml in PBS to each well and incubate plate for 1.5 h. Wash plates once with DELFIA® wash solution. • (9) Add 100 μl Europium labelled anti-mouse IgG diluted in DELFIA® assay buffer to 75 ng/ml and incubate for 1 hour. Wash plates once with DELFIA® wash solution as before. • (10) Add 100 μl DELFIA® enhancement solution to each well. • (11) Measure the fluorescence (615 nm) in Victor 2 1420 multilabel counter (Perkin Elmer Life Sciences, Milton Keynes, UK) using time-resolved measurement mode. • (12) Wash plates once with PBS and measure protein concentration by the addition of 200 μl BCA reagent to each well, shake for 1–2 min and incubate for 30 mins at 37° C. Read absorption at 570 nm. • (13) Express ELISA results by normalising to protein in the well (Eu counts (cpm) divided by OD@ 570 nm). Compare the effect of HSP90 inhibitors on HSP70 expression with DMSO treated controls. Comments • (1) Cells plated into 96 well plates are incubated in a plastic box to reduce evaporation from the outside wells. In addition, ELISA incubation steps are carried out in a 37° C. laboratory incubator and in a moist environment e.g., plastic box lined with damp tissue paper. • (2) All additions to the microtitre plate can be achieved using a multichannel pipette or for larger numbers of plates an automated dispenser such as a Multidrop (Thermo Labsytems, Basingstoke, UK). • (3) For convenience, if the effects of compounds are being studied at several time points the ELISA can be carried out in batches, plates being stored (in a container) at 4° C. following the fixation step. In this case the plates are washed only once following fixation and again immediately before the first ELISA step (step 6 above). In addition all the plates can be stored for subsequent protein estimation. • (4) Reproducibility of both the measured Europium counts and the protein measurements was between 10–15% (CV). • (5) DELFIA® reagents (see, e.g., Hemmila and Webb, 1997) have been routinely used in cell-based ELISAs. This endpoint provides high sensitivity and the time-resolved measurements reduce interference from non-specific fluorescence. However, it is also possible to use a horse radish peroxidase second antibody conjugate and either a calorimetric (e.g., tetramethylbenzidine) or chemiluminescent reagent (e.g., ECL reagent (Amersham Pharmacia Biotech, Little Chalfont, Bucks, UK) for endpoint measurement. • (6) It is recommended that a blank consisting of second-antibody only (i.e., no first antibody) together with an appropriate first antibody control (e.g., isotype matched IgG) are included in assays during the process of optimising reagent concentrations. Growth Inhibition Assay\nThe effect of various compounds of the present invention on the expression of the molecular marker HSP70 was determined using the cell-based ELISA and a specific monoclonal antibody to HSP70 in HCT116 cells, as described above. Cellular protein following compound exposure was determined using BCA assay as described in the method."}
{"smiles": "Cc1[nH]nc(-c2ccc(O)cc2O)c1-c1ccc2c(c1)OCCO2", "note": "[CCT018157]", "values": [{"measurement": "Cellular Protein (% DMSO controls)", "setting": "(48 h)", "result": 91.3, "unit": "%"}, {"measurement": "Cellular Protein (% DMSO controls)", "setting": "(time not given)", "result": 21.2, "unit": "%"}]}
{"smiles": "CCc1cc(-c2n[nH]c(C)c2-c2ccc3c(c2)OCCO3)c(O)cc1O", "note": "[CCT018159, 4-[4-(2,3-Dihydro-benzo[1,4]dioxin-6-yl)-5-methyl-1H-pyrazol-3-yl]-6-ethyl-benzene-1,3-diol]", "values": [{"measurement": "cellular protein measured by BCA, reduction of DMSO controls", "setting": "HCT116, 10 μM", "result": "50–80%"}, {"measurement": "Cellular Protein (% DMSO controls)", "setting": "(48 h)", "result": 50.0, "unit": "%"}, {"measurement": "Cellular Protein (% DMSO controls)", "setting": "(time not given)", "result": 20.8, "unit": "%"}]}
